Results: patent US7504537B2, “Hydroxamic acid derivative and MMP inhibitor containing the same as active ingredient” (Dainippon Sumitomo Pharma Co., Ltd., priority 2001, dated 2009)

What was measured:
Assay type in all cases: biochemical
MMP-3 = target: T1, MMP-3 (Homo sapiens, UniProt P08254); experiment: Test 1 Test on MMP-3 inhibiting activity (fluorogenic peptide substrate); details: activated MMP-3, 37° C.; read-out: MMP-3 inhibition activity value
T1 construct: C-terminal truncated cDNA in which the cDNA encodes human prostromelysin; made in house; host or cells: E. coli
Protocol: Test 1 Test on MMP-3 Inhibiting Activity
C-terminal truncated cDNA in which the cDNA encodes human prostromelysin, was subcloned (proMMP-3, cDNA sequence in Nature, 348, 699-704 (1990)), was expressed in E. coli and then, the expressed protein was purified in accordance with the method described in Biochemistry 30, 6476-6483 (1991). proMMP-3 activation was carried out by treating with 1 mM 4-aminophenyl mercuric acetate for 60 minutes at 37° C.
Enzyme activity test was conducted by the method of C. G. Knight (FEBS Lett., 296(3), 263-266 (1992)).
A mixture of activated MMP-3 (20 nM, 10 μl), buffer solution (70 μl, pH 7.5 solution containing 100 mM Tris-HCl solution, 10 mM calcium chloride solution, 100 mM sodium chloride solution and 0.05% Brij-35 solution), MOCAc-Pro-Leu-Gly-Leu-A2pr(DNP)-Ala-Arg-NH2 in 0.1% DMSO solution (100 μM, 10 μl) and a test compound in DMSO solution was incubated for 1.5 hours at 37° C. The mixture was put on a 96 well-plate (100 μl/well) and the plate was cultured at 37° C. The enzyme activity in the presence of the compound was measured based on fluorescence intensity (λex 320 nm, λem 405 nm), and IC50 was calculated.

MMP-2 = target: T2, MMP-2 (Homo sapiens, UniProt P08253); experiment: Test 3 MMP-2 inhibition activity test (gelatinase activity assay kit); details: activated human MMP-2, biotin labeled gelatin
T2 construct: purchased Boeringer Manheim (Roche Diagnostics)
T2 sequence (P08253 110-660): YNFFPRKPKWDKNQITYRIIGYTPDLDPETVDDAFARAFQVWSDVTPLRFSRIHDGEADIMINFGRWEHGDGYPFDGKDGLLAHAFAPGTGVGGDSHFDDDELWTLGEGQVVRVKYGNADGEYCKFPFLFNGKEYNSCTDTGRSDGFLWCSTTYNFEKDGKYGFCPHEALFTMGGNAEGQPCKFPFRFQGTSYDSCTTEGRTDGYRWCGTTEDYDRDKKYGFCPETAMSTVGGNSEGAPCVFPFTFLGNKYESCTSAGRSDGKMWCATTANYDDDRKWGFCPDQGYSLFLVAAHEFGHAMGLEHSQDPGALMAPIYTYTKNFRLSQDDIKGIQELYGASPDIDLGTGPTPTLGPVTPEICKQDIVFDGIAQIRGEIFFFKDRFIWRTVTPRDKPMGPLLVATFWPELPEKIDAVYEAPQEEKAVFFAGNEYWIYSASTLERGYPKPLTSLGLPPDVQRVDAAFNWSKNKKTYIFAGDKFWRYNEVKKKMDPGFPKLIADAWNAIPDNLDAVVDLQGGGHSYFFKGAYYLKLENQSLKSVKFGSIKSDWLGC
Protocol: TTC buffer solution was attached to a MMP-2 enzyme assay kit, and the solution was made of 50 mM tris, 1 mM calcium chloride solution and 0.05% Triton X-100 solution, and was adjusted to pH 7.5.
Test 3 MMP-2 Inhibition Activity Test
MMP-2 enzyme assay kit (Gelatinase Activity Assay, Roche.Diagonistics) was used.
A mixture of 1.2U human MMP-2 (20 μl, Boeringer Manheim 30U freezed dry product), TTC buffer (980 μl) and 2.5 mM 4-aminophenyl mercuric acetate solution (144 μl) was incubated at 37° C. for 30 minutes and then it was preserved under ice cooling until use.
A mixture of DMSO solution (2 μl) containing a definite concentration of the compound, biotin labeled gelatin (188 μl) and activated MMP-2 solution (10 μl) was put on a 96 well-assay plate (protein nonabsorbance type), well agitated and incubated at 37° C. for 1 hour. This solution was transferred to a Streptavidin-coating plate and agitated at 15° C, to 30° C. for 30 minutes. And then the solution was washed with TTC buffer solution (200 μl) three times. Thereto was added Streptavidin-POD (200 μl) and the mixture was agitated at 15° C. to 25° C. for 60 minutes, followed by washing with TTC buffer (200 μl) three times. Then, ABTS solution (200 μl) was added thereto and after standing at room temperature for 40 minutes, furuorescence intensity was measure at 405 nm and IC50 was calculated.
In case of the above test, a control and a blank were prepared when the well was prepared as mentioned below. DMSO (2 μl) was used as a control instead of a sample solution. In the case of a blank, DMSO (2 μl) instead of the sample solution and the solution (10 μl) prepared in the same manner as preparation of activated MMP-2 solution but without adding 1.2U human MMP-2, instead of activated MMP-2 solution (10 μl), were used.

MMP-9 = MMP-9 (Homo sapiens, UniProt P14780); experiment: Test 4 MMP-9 inhibiting activity test (biotin labeled gelatin); details: activated human MMP-9, biotin labeled gelatin; read-out: MMP-9 inhibition activity value
Protocol: Test 4 MMP-9 Inhibiting Activity Test
A mixture of buffer solution (190 μl; pH 7.5 solution containing 50 mM Tris-HCl solution, 0.5 m sodium chloride solution and 5 mM calcium chloride solution), human MMP-9 (10 μl) and trypsin solution (20 μl; trypsin 3 mg in activated buffer (5 ml)) was incubated at 37° C. for 10 minutes. Thereto was added aprotinine solution (20 μl; aprotinine (3 mg) in buffer (5 ml)) and the mixture was incubated at 37° C. for 10 minutes, followed by addition of buffer (2 ml). The mixture was preserved under cooling with ice until use.
A mixture of DMSO solution (2 μl) containing definite concentration of the compound, biotin labeled gelatin (188 μl) and activated MMP-9 solution (10 μl) was put on a 96 well-assay plate (protein nonabsorbance type), well agitated, and incubated at 37° C. for 1 hour. This solution was transferred to Streptavidin-coating plate, and agitated at 15° C. to 30° C. for 30 minutes. And then the solution was washed with TTC buffer solution (200 μl) three times. Thereto was added Streptavidin-POD (200 μl) and the mixture was agitated at 15° C. to 25° C. for 60 minutes, followed by washing with TTC buffer (200 μl) three times. Then, ABTS solution (200 μl) was added thereto and after standing at room temperature for 40 minutes, furuorescence intensity was measured at 405 nm and IC50 was calculated.
In case of the above test, DMSO (2 μl) was used as a control instead of a sample solution. In the case of a blank, DMSO (2 μl) instead of the sample solution and the solution (10 μl) prepared in the same manner as preparation of […] but without adding 1.2 Uhuman MMP-9, instead of activated MMP-9 solution (10 μl), were used.

T1 sequence (P08254 100-272 limits assumed): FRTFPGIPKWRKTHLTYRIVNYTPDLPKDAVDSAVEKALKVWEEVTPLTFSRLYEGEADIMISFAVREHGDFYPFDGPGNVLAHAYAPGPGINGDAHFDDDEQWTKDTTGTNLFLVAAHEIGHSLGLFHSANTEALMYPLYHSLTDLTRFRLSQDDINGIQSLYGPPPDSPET
Sequence of MMP-9 (P14780 107-707 limits assumed): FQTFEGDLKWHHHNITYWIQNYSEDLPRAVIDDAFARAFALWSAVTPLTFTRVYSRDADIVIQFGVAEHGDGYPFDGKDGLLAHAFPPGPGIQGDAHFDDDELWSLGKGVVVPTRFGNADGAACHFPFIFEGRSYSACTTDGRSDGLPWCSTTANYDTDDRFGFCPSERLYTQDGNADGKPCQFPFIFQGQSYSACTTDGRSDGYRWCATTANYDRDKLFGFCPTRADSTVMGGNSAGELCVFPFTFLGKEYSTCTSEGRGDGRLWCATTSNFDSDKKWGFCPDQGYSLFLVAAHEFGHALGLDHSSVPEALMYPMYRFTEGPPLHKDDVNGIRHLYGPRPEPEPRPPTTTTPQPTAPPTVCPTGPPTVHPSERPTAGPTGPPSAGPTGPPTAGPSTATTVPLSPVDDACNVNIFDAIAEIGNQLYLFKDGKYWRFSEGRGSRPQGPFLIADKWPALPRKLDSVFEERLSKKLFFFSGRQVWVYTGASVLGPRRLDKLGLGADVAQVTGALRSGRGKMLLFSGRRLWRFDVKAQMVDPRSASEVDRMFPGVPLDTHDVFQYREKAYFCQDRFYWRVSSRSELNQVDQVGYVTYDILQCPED

Row | SMILES | IC50 (MMP-3) [nM] | IC50 (MMP-2) [nM] | IC50 (MMP-9) [nM]
1 | CS(=O)(=O)c1ccc(Oc2ccc(S(=O)(=O)N(Cc3ccccc3)C3(C(=O)NO)CCOCC3)cc2)cc1 [Example 12, 4-[Benzyl({4-[4-(methylsulfonyl)phenoxy]phenyl}sulfonyl)amino]-N-hydroxytetrahydoro-2H-pyrane-4-carboxamide] | 16 | < 100 | < 100
2 | CCOCCN(C1(C(=O)NO)CCCC1)S(=O)(=O)c1ccc(Oc2ccc(S(C)(=O)=O)cc2)cc1 [Example 45, 1-[(2-Ethoxyethyl)({4-[4-(methylsulfonyl)phenoxy]phenyl}sulfonyl)amino]-N-hydroxycyclopentanecarboxamide] | 1.5 | > 100 | > 100
3 | CC(C)CN(C1(C(=O)NO)CCCC1)S(=O)(=O)c1ccc(Oc2ccc(S(C)(=O)=O)cc2)cc1 [Example 2, N-hydroxy 1-[isobutyl({4-[4-(methylsulfonyl)phenoxy]phenyl}sulfonyl)amino]cyclopentanecarboxamide] | 21.2 | < 100 | 300
4 | CC(C)(C(=O)NO)N(Cc1ccccc1)S(=O)(=O)c1ccc(Oc2ccc(S(C)(=O)=O)cc2)cc1 [Example 10, N′^2′-Benzyl-N′^1′-hydroxy-2-methyl-N′^2′-({4-[4-(methylsulfonyl)phenoxy]phenyl}sulfonyl)alaninamide] | 85.8 | 2400 | 6800
5 | CC(C)CN(C1(C(=O)NO)CCOCC1)S(=O)(=O)c1ccc(Oc2ccc(S(C)(=O)=O)cc2)cc1 [Example 15, N-Hydroxy-4-[isobutyl({4-[4-(methylsulfonyl)phenoxy]phenyl}sulfonyl)amino]tetrahydro-2H-pyrane-4-carboxamide] | 5.2 | 300 | 700
